According to US20130252334A1, “METHOD OF USING TET-INDUCIBLE TRANSGENES” (UNIVERSITY OF ROCHESTER, priority 2010, published 2013):
Like-named read-outs stand apart in the source and are kept apart here.

Tested on: caspase-3 cleavage
Conditions: 2.5 μg/ml; for suppression of hypoxia-induced caspase-3 cleavage after pulse dosing: 16 hours washout, hypoxia 0.5% O2 24 hours; for caspase-3 cleavage, both dosing protocols: continuous or pulse, hypoxia
Protocol: Cells were exposed to 0.5% O2 for 18 hours unless otherwise specified.

Row | SMILES | suppression of hypoxia-induced caspase-3 cleavage after pulse dosing (12 hours pulse) | suppression of hypoxia-induced caspase-3 cleavage after pulse dosing (12 hours pulse, listed as doxycycline) | caspase-3 cleavage, both dosing protocols | suppressive effect on caspase-3 cleavage vs washout period length (12 hours pulse, washout 0, 12, 24 hours, hypoxia 0.5% O2 18 hours)
1 | CC1c2cccc(O)c2C(=O)C2=C(O)C3(O)C(=O)C(C(N)=O)=C(O)C(N(C)C)C3C(O)C21 (stereo not drawn) [Dox, 4-[Dimethylamino]-1,4,4a,5,5a,6,11,12a-octahydro-3,5,10,12,12apentahydroxy-6-methyl-1,11-dioxo-2-naphthacenecarboxamide] | ameliorated dox-mediated suppression | did ameliorate its suppressive effects on caspase cleavage | both drugs interfered with caspase-3 cleavage | –
2 | C[C@H]1c2ccc(C(C)(C)C)c(O)c2C(O)=C2C(=O)[C@]3(O)C(O)=C(C(N)=O)C(=O)[C@@H](N(C)C)[C@@H]3[C@@H](O)[C@@H]21 [9-TB, 9-t-butyl doxycycline] | less impressive | – | both drugs interfered with caspase-3 cleavage | augmented by shorter washout periods with a sharp decline occurring between the 12 and 24-hour chase periods
